Test results published in patent US7008927B2, “Pralmorelin-containing nasal drop preparations” (Kaken Pharmaceutical Co., Ltd., priority 2000, dated 2006).
Where a SMILES comes first, the peptide text is derived from it. [ ]: non-standard residue; d: D form. d2Nal = N[C@H](Cc1ccc2ccccc2c1)C(=O)O

Experiments:
[1] = Saturated solubility in physiological saline; type: physicochemical; conditions: 25° C., as dihydrochloride
Description: To be more specific, pralmorelin has low saturated solubility in physiological saline (0.15 w/v % at 25° C. when it is dihydrochloride) and at higher concentrations, pralmorelin becomes insoluble with the lapse of time and a problem occurs in terms of storage stability, thus making it difficult to formulate pralmorelin pharmaceutically using physiological saline. Even at concentrations lower than its saturated solubility, pralmorelin has low in vivo absorption and needs frequent administration.

[2] = In vivo absorption after intranasal administration to rats (plasma concentration, two-antibody competition method); conditions: Crj:CD (SD), rat; for Tmax: male rats; for AUC / Cmax / bioavailability: male
Description: With an isotonic solution (in distilled water) of 5 w/v % D-mannitol or physiological saline used as a solvent, a solution of 0.1 w/v % pralmorelin dihydrochloride was prepared and administered to male rats (7-week old, Crj:CD (SD) strain, N=3) in an amount of 50 μg/kg.
With the rats fixed supine under an unanesthetized condition, the pralmorelin solution was administered into one nostril of each rat in an amount of 50 μg/kg with a micropipette. The rats were not anesthetized for two reasons: actual drug administration is effected without anesthesia; the effects anesthetization would have on drug absorption have not been elucidated.
The concentration of an unchanged substance in plasma was measured in accordance with the two-antibody competition method of Kitagawa et al. summarized below [J. Assoc. Off. Anal. Chem., Vol. 68, No. 4, pp. 661–664 (1985) and J. Immunological Methods, 72, pp. 109–118 (1984)].
Anti-rabbit IgG goat IgG (Jackson Immuno Research) as the second antibody was adsorbed on an ELISA 96-well microplate (GREINER). Then, anti-pralmorelin dihydrochloride rabbit serum was adsorbed on the same microplate; the serum was the first antibody and had been obtained by subcutaneous injection of rabbits with an immunogen having pralmorelin dihydrochloride bound to bovine serum albumin (Sigma) by means of water-soluble carbodiimide (Nakarai Tesk).
Pralmorelin dihydrochloride contained in a sample was allowed to compete for pralmorelin labeled β-galactosidase that had been crosslinked with crosslinker N-(m-maleimidebenzoyloxy)succinimide (Nakaral Tesk); then, the β-galactosidase bound to the first antibody was reacted with 4-methylumbelliferyl-β-D-galactopyranoside; thereafter, the enzymatic activity of the β-galactosidase bound to the first antibody was measured at an excitation wavelength of 370 nm and a fluorescence wavelength of 460 nm.
From the measured values for the enzymatic activity of the β-galactosidase, the maximum plasma drug concentration (Cmax) of pralmorelin dihydrochloride, the area under the plasma drug concentration vs time curve (AUC) and the bioavailability (the ratio of AUC obtained by intranasal administration to AUC obtained by intravenous administration) were obtained.
Two kinds of preparation for intranasal administration, one consisting of pralmorelin dihydrochloride and distilled water and the other further containing D-mannitol at varying concentrations, were evaluated for their effects on in vivo absorption of pralmorelin dihydrochloride. With four kinds of solvent, distilled water, 2.5 w/v % D-mannitol solution (osmolarity ratio, 0.5), 5 w/v % D-mannitol solution (osmolarity ratio, 1), 10 w/v % D-mannitol solution (osmolarity ratio, 2), solutions of 0.4 w/v % pralmorelin dihydrochloride were prepared and administered in an amount of 50 μg/kg to male rats as in Example 1.
With an aqueous solution of 0.005 w/v % benzalkonium chloride used as a base, pralmorelin preparations for intranasal administration were made at three concentrations, 0.1 w/v %, 0.3 w/v % and 1.0 w/v %, of pralmorelin dihydrochloride. Each preparation was dripped into the right nostril of 5-week old male Crj:CD (SD) rats (N=3). The dose of administration was 0.1 mg/kg, 0.3 mg/kg and 1.0 mg/kg for the respective preparations, which were all administered in a volume of 0.1 ml/kg.

[3] = inhaled or intranasal, 50 ug/kg, intranasal 50 μg/kg, 0.1 w/v % solution in 5 w/v % D-mannitol
[4] = inhaled or intranasal, 50 ug/kg, intranasal 50 μg/kg, 0.1 w/v % solution in physiological saline
[5] = inhaled or intranasal, 50 ug/kg, intranasal 50 μg/kg, 0.4 w/v % solution in 2.5 w/v % D-mannitol (osmolarity ratio 0.5)
[6] = inhaled or intranasal, 50 ug/kg, intranasal 50 μg/kg, 0.4 w/v % solution in 5 w/v % D-mannitol (osmolarity ratio 1)
[7] = inhaled or intranasal, 50 ug/kg, intranasal 50 μg/kg, 0.4 w/v % solution in 10 w/v % D-mannitol (osmolarity ratio 2)
[8] = inhaled or intranasal, 50 ug/kg, intranasal 50 μg/kg, 0.4 w/v % solution in distilled water
[9] = inhaled or intranasal, 0.1 mg/kg, intranasal 0.1 mg/kg, 0.1 w/v % in aqueous 0.005 w/v % benzalkonium chloride, 0.1 ml/kg
[10] = inhaled or intranasal, 0.3 mg/kg, intranasal 0.3 mg/kg, 0.3 w/v % in aqueous 0.005 w/v % benzalkonium chloride, 0.1 ml/kg
[11] = inhaled or intranasal, 1 mg/kg, intranasal 1.0 mg/kg, 1.0 w/v % in aqueous 0.005 w/v % benzalkonium chloride, 0.1 ml/kg

C[C@H](NC(=O)[C@@H](Cc1ccc2ccccc2c1)NC(=O)[C@@H](C)N)C(=O)N[C@@H](Cc1c[nH]c2ccccc12)C(=O)N[C@H](Cc1ccccc1)C(=O)N[C@@H](CCCCN)C(N)=O.Cl.Cl [pralmorelin dihydrochloride, D-alanyl-3-(naphthalen-2-yl)-D-alanyl-L-alanyl-L-tryptophyl-D-phenylalanyl-L-lysinamide dihydrochloride] (H-[dA][d2Nal]AW[dF]K-NH2)
saturated solubility in physiological saline [1]: 0.15 w/v %
Tmax ([2]; inhaled or intranasal, intranasal 0.1 mg/kg, 0.1 w/v % in aqueous 0.005 w/v % benzalkonium chloride, 0.1 ml/kg): 10.2 min
Tmax ([2]; inhaled or intranasal, intranasal 0.3 mg/kg, 0.3 w/v % in aqueous 0.005 w/v % benzalkonium chloride, 0.1 ml/kg): 10.2 min
Tmax ([2]; inhaled or intranasal, intranasal 1.0 mg/kg, 1.0 w/v % in aqueous 0.005 w/v % benzalkonium chloride, 0.1 ml/kg): 10.2 min
AUC [2, 3]: 2.71 ng·h/mL
Cmax [2, 3]: 2.37 ng/mL
AUC [2, 4]: 1.98 ng·h/mL
Cmax [2, 4]: 0.7 ng/mL
Cmax [2, 5]: 55.8 ng/mL
bioavailability [2, 5]: 22.1%
Cmax [2, 6]: 49.2 ng/mL
bioavailability [2, 6]: 19%
Cmax [2, 7]: 21.7 ng/mL
bioavailability [2, 7]: 9%
Cmax [2, 8]: 60.7 ng/mL
bioavailability [2, 8]: 26.2%
AUC [2, 9]: 14.5 ng·h/mL
Cmax [2, 9]: 18 ng/mL
AUC [2, 10]: 48.1 ng·h/mL
Cmax [2, 10]: 72.8 ng/mL
AUC [2, 11]: 250 ng·h/mL
Cmax [2, 11]: 502 ng/mL
bioavailability ([2]; other: intranasal, 50 ug/kg, intranasal 50 μg/kg, 0.1 w/v % solution in 5 w/v % D-mannitol, AUC intranasal / AUC intravenous): 4.22%
bioavailability ([2]; other: intranasal, 50 ug/kg, intranasal 50 μg/kg, 0.1 w/v % solution in physiological saline, AUC intranasal / AUC intravenous): 3.08%
